Patent US20210163485A1, “Heterocyclic Compounds for the Treatment of Disease” (Oppilan Pharma Ltd., priority 2017, published 2021)

What follows are molecules tested against T1, full-length human S1P1 (Homo sapiens, UniProt P21453) (assay: GTPγS binding assay (scintillation proximity assay) with S1P1 membranes). Settings: S1P1 membrane from CHO-K1 Gαqi5 cells; GTPγ35S SPA, 60 minutes incubation.
T1 construct: CHO-K1 Gαqi5 cells expression full-length human S1P1; expressed in transfected cells; host or cells: CHO-K1 Gαqi5 cells (membrane preparation)
T1 sequence (P21453 whole entry): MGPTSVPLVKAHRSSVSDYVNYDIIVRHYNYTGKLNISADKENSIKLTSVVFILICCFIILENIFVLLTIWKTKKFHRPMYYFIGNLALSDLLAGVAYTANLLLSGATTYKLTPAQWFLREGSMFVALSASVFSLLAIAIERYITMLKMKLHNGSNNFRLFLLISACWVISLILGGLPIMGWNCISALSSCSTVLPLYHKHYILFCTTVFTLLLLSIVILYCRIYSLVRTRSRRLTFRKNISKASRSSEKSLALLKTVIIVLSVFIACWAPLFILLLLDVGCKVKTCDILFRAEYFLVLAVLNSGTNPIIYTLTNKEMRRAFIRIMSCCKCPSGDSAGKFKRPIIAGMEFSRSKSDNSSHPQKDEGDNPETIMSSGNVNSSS
Format: biochemical
Procedure: S1P1 membrane is prepared from CHO-K1 Gαqi5 cells expression full-length human S1P1. Scintillation proximity assay (SPA) is performed by incubating membranes, GTPγ^35S, and compounds at various concentrations for 60 minutes. Wheat germ agglutinin-coated SPA beads are added and incubated for 60 minutes before centrifugation and scintillation counting.

Row | EC50 [nM] | SMILES
1 | < 100 | CC(CO)Oc1cc(Cl)c(-c2noc(-c3cn4cc(C(F)(F)F)ncc4n3)n2)cc1Cl (stereo not shown) [Compound 7, 2-(2,5-dichloro-4-(5-(6-(trifluoromethyl)imidazo[1,2-a]pyrazin-2-yl)-1,2,4-oxadiazol-3-yl)phenoxy)propan-1-ol]
2 | < 100 | OC[C@H](O)COc1cc(Cl)c(-c2noc(-c3cn4cc(C(F)(F)F)ncc4n3)n2)cc1Cl [Compound 8, (S)-3-(2,5-dichloro-4-(5-(6-(trifluoromethyl)imidazo[1,2-a]pyrazin-2-yl)-1,2,4-oxadiazol-3-yl)phenoxy)propane-1,2-diol]
3 | < 100 | OC[C@@H](O)COc1cc(Cl)c(-c2noc(-c3cn4cc(C(F)(F)F)ncc4n3)n2)cc1Cl [Compound 9, (R)-3-(2,5-dichloro-4-(5-(6-(trifluoromethyl)imidazo[1,2-a]pyrazin-2-yl)-1,2,4-oxadiazol-3-yl)phenoxy)propane-1,2-diol]
4 | < 100 | N[C@@H](CO)COc1cc(Cl)c(-c2noc(-c3cn4nc(C(F)(F)F)ccc4n3)n2)cc1Cl [Compound 19, (S)-2-amino-3-(2,5-dichloro-4-(5-(6-(trifluoromethyl)imidazo[1,2-b]pyridazin-2-yl)-1,2,4-oxadiazol-3-yl)phenoxy)propan-1-ol]
5 | 100 to 1000 | CC(CO)Oc1cc(Cl)c(-c2noc(-c3cn4nc(C(F)(F)F)ccc4n3)n2)cc1Cl (stereo not shown) [Compound 21, 2-(2,5-dichloro-4-(5-(6-(trifluoromethyl)imidazo[1,2-b]pyridazin-2-yl)-1,2,4-oxadiazol-3-yl)phenoxy)propan-1-ol]
6 | 100 to 1000 | OC[C@H](O)COc1cc(Cl)c(-c2noc(-c3cn4nc(C(F)(F)F)ccc4n3)n2)cc1Cl [Compound 22, (S)-3-(2,5-dichloro-4-(5-(6-(trifluoromethyl)imidazo[1,2-b]pyridazin-2-yl)-1,2,4-oxadiazol-3-yl)phenoxy)propane-1,2-diol]
7 | < 100 | N[C@@H](CO)COc1cc(Cl)c(-c2noc(-c3cn4cc(C(F)(F)F)ncc4n3)n2)cc1Cl [Compound 24, (S)-2-amino-3-(2,5-dichloro-4-(5-(6-(trifluoromethyl)imidazo[1,2-a]pyrazin-2-yl)-1,2,4-oxadiazol-3-yl)phenoxy)propan-1-ol]
